According to patent US20160324876A1, “VITAMIN D AND ANTIBACTERIAL USES OF COMPOSITIONS THEREOF” (ZENSUN SCIENCE & TECHNOLOGY LIMITED, priority 2014, published 2016):

Legend:
LL-37 = assay: ELISA of LL-37 in lysate of VD3-stimulated 5637 cells; assay type: cell-based, human; settings: 5637 cells stimulated with VD3 at different concentrations, FIG. 4
Experimental: 3.2 ELISA Experiments about Effect of 1,25 (OH)2D3 on LL-37 Production 3.2.1 the Procedure of Inoculation (Day1), Administration (Day2), and E. coli infection bacteria solution preparation (Day 2&3) was the same as 3.1.1, 3.1.2 and 3.1.3.
Cell lysate was obtained using the method of 3.1.4. Cell debris and bacteria were removed by 13000 rpm centrifugation for 5 min. Lysate supernatant was fetched out and LL-37 was quantified by Human LL-37 ELISA Kit (Hycult, Cat. No. HK321).

E. coli CFT073 [1] = assay: Antibacterial experiment: VD3-stimulated 5637 bladder cells co-incubated with E. coli CFT073, CFU of cell lysate; assay type: cell-based; settings: 5637 cells stimulated by VD3 at different concentrations, FIG. 3
Experimental: In this study, the final activated form of vitamin D, 1,25-dihydroxyvitamin D3 [1,25(OH)2D3] was the test substance, the human bladder cancer cells 5637 was used as experimental systems, the E. coli CFT073 was antibacterial target, cells treated by 1,25(OH)2D3 was co-incubated with E. coli CFT073. The E. coli CFT073 colony forming units (CFU) was used to examine whether 1,25(OH)2D3 achieved an antibacterial effect by stimulating cell lines derived from human to secrete antimicrobial peptides in vitro.
(§1) 5637 cells in the condition of exponential growth and about 90% confluence were digested by pancreatin (GIBCO, Cat. No. 25200-056) for 5 min. When most of the cells came off from the culture plate, complete medium was added to terminate digestion. The non-peeling cells were blown down from the culture plate by a pipette, and were transferred to a 15 ml centrifuge tube. The cells were centrifuged at 1500 rpm for three minutes. The supernatant was discarded. The cell deposit was resuspended in complete medium to ensure that the cells uniformly dispersed.
(§2) The cell suspension was counted by hemacytometer;
The concentration of cell suspension was adjusted to 4×10^5/mL using incomplete RPMI 1640 medium;
Each well of 6-well plate was inoculated with 2 mL cell suspension, the total number of cells per well was 8×10^5;
6-well plate was placed in an incubator under the condition of 37° C., 5% CO2. […]

E. coli O111B4 = assay: Antibacterial experiment: supernatant of VD3-stimulated U-937 cells co-incubated with E. coli O111B4, colony count; assay type: cell-based; settings: for CFU: U937 supernatant
Experimental: In this study, the final activated form of vitamin D, 1,25-dihydroxyvitamin D3 [1,25 (OH)2D3] was the test substance. The lymphoma U-937 cells of human tissue cell were used as experimental systems, the E. coli O111B4 was the antibacterial target. Cell supernatants treated by 1,25(OH)2D3 was co-incubated with E. coli O111B4. The E. coli O111B4 colony forming units (CFU) was used to examine whether 1,25(OH)2D3 achieved an antibacterial effect by stimulating cell lines derived from human to secrete antimicrobial peptides in vitro.
U-937 cells in the condition of exponential growth were centrifuged (1000 rpm, 5 min);
After centrifugation, the supernatant was discarded, and cell sediment was resuspended in an appropriate amount of RPMI1640 incomplete medium to make sure cells dispersed uniformly;
The cell suspension was counted by hemacytometer counting;
The concentration of cell suspension was adjusted to 1×10^5/mL using RPMI 1640 incomplete medium;
Each well of 6-well plate was inoculated with 3 mL cell suspension, the total number of cells per well was 3×10^5;
According to the label and the experimental design, 10 μL 200× test solution or vehicle of various concentrations with 0.5% (v/v) dose volume was added to each well.
Each dose was repeated in two parallel wells, one well harvested after 24 hours, and the other well harvested after 48 hours;
After administration, the 6-well plate was placed in 37° C., 5% CO2 incubator, cultured for 24 hours and 48 hours respectively.
Day 1 afternoon, a E. coli O111B4 glycerol pipe was thawed, 10 μL glycerol bacteria was inoculated in 10 mL of LB liquid medium without any antibiotic, and was cultured on oscillator at 37° C. overnight; Day 2 morning, 200 μL cultured broth (1:100 ratio) cultured overnight was transferred to 20 mL LB liquid medium without any antibiotics and was cultured on oscillator at 37° C. until OD600 was 0.6-1.0, then the next step was antibacterial experiment (Day 3); the remaining overnight cultured broth was stored in the refrigerator at 2-8° C. until needed.
Day 2 afternoon, 10 μL overnight cultured broth was inoculated in 10 mL LB medium without any antibiotics, and was cultured on oscillator at 37° C. overnight;
Day 3 morning, 200 μL overnight cultured broth (1:100 ratio) was transferred to 20 mL LB medium without any antibiotics, and was cultured on oscillator at 37° C. until OD600 was 0.6-1.0, then the next step was antibacterial experiment (Day 3).
Before the experiment started, 1.5% agar plate (lower medium) prepared beforehand was placed at room temperature for at least one hour;
Top agar medium (containing 0.8%/agar) was melted, and packaged. Each 1.6 mL of Top agar medium was packaged in each tube, and then the small tube was placed in 45° C. water bath to keep warm;
10 mL E. coli bacteria of OD600 0.6-1.0 was transferred into 50 mL centrifuge tubes to centrifuge (1000 rpm×5 min); After centrifugation, the supernatant was discarded, the bacteria precipitate was resuspended by adding 10 mL PBS; the above-described bacterial suspension was diluted 1×10^5 fold in PBS dilution by multiple proportion dilution (from 10-fold); After the drug action finished (24 hours or 48 hours), U-937 cells was centrifugated (1000 rpm, 5 min). After centrifugation, the supernatant was drawn back;
Each centrifuge tube previously added 50 μL diluted bacterial suspension (approximately 150-250 bacteria);
Bacterial suspension were added with 1.2 mL cell supernatant from each cell supernatant, and mixed;
The supernatant/bacterial mixture was placed on shaking table (200 rpm) at 37° C. and was incubated for 90 minutes. After incubation, the next step was plating;
Plating: 0.8 mL of cell supernatant/broth mixture was mixed with 1.6 mL top agar medium, the mixture was plated on 1.5% agar plates, 600 uL per well in triplicate.
Sterility test: 800 uL PBS and 1.6 mL top agar medium was mixed, and plated as above. […]

E. coli CFT073 [2] = assay: Antibacterial experiment: VD3-stimulated SV-HUC1 urethral epithelial cells co-incubated with E. coli CFT073, CFU of cell lysate; assay type: cell-based; settings: SV-HUC1 cells stimulated by VD3 at different concentrations, FIG. 5
Experimental: In this study, with the final activated form of vitamin D3, 1,25-dihydroxyvitamin D3 [1,25 (OH)2D3] as the test substance, the immortalized human urethral epithelial cells SV-HUC1 as experimental systems, the E. coli CFT073 as antibacterial target, the cells treated by 1,25 (OH) 2D3 were co-incubated with E. coli CFT073. The E. coli CFT073 colony forming units (CFU) were used to examine whether 1,25 (OH) 2D3 achieves an antibacterial effect by stimulating cell lines derived from human to secrete antimicrobial peptides in vitro.
as §1, with “SV-HUC1” for “5637”, “dispersed uniformly.” for “uniformly dispersed.”
as §2
The concentration of cell suspension was adjusted to 4×10^5/mL using F12 incomplete medium;
Each well of 6-well plate was inoculated with 2 mL cell suspension, the total number of cells per well was 8×10^5; […]

## C=C1/C(=C\C=C2/CCC[C@]3(C)[C@@H]([C@H](C)CCCC(C)(C)O)CC[C@@H]23)C[C@@H](O)C[C@@H]1O [VD3, 1,25-dihydroxyvitamin D3]
LL-37
  LL-37 levels in cell lysates: significant dose-dependent increase
E. coli CFT073 [1]
  antibacterial effect (relative CFU of 5637 cell lysate vs ethanol control): significant antibacterial effect
E. coli O111B4; High dose, VD3 10^−7M, Day 1, Serum 10%
  CFU: 172
E. coli O111B4; High dose, VD3 10^−7M, Day 2, Serum 1%
  CFU: 112
E. coli O111B4; High dose, VD3 10^−7M, Day 2, Serum 10%
  CFU: 127
E. coli O111B4; High dose, VD3 10^−7N, Day 1, Serum 1%
  CFU: 108
E. coli O111B4; Low Dose, VD3 10^−8M, Day 1, Serum 1%
  CFU: 102
E. coli O111B4; Low Dose, VD3 10^−8M, Day 1, Serum 10%
  CFU: 112
E. coli O111B4; Low Dose, VD3 10^−8M, Day 2, Serum 1%
  CFU: 93
E. coli O111B4; Low Dose, VD3 10^−8M, Day 2, Serum 10%
  CFU: 97
E. coli O111B4; U937 cells stimulated by different concentrations of VD3
  antibacterial effect of supernatant solution: significant antibacterial effect
E. coli CFT073 [2]
  antibacterial activity of cell lysates: significant antibacterial activity

## CC1(C)S[C@@H]2[C@H](NC(=O)[C@H](N)c3ccccc3)C(=O)N2[C@H]1C(=O)O [antibiotic control group, ampicillin]
E. coli O111B4; antibiotics control experiment: PBS, broth, 2 uL ampicillin, top agar
  colonies produced: no colonies produced
